Laboratory results taken from patent US20240207292A1, “BORONIC ACID COMPOUNDS, COMPOSITIONS AND METHODS” (Trustees of Tufts College, priority 2021, published 2024).
Read-outs that look alike come from different tables or passages of the source. Square brackets hold non-standard residues; d marks the D form. Peptide text beside a SMILES is read from it. * marks the point of attachment. X3 = O=C1CN2CCN3CC(=O)O[C]4(C3)CN(CC(=O)*)CCN3CC(=O)O[C](C2)(C3)[Lu]4[O]1; DOTAGA = O=C(O)CN1CCN(CC(=O)O)CCN(C(CCC(=O)*)C(=O)O)CCN(CC(=O)O)CC1; boroPro = OB(O)[C@@H]1CCCN1*

Experiments:
Format in all cases: biochemical
[1] = biological target: recombinant human fibroblast activation protein (FAP) (Homo sapiens (Human), UniProt Q12884); assay: In vitro assay fibroblast activation protein IC50 (Example 21)
Chain of recombinant human fibroblast activation protein (FAP) (Q12884 whole entry): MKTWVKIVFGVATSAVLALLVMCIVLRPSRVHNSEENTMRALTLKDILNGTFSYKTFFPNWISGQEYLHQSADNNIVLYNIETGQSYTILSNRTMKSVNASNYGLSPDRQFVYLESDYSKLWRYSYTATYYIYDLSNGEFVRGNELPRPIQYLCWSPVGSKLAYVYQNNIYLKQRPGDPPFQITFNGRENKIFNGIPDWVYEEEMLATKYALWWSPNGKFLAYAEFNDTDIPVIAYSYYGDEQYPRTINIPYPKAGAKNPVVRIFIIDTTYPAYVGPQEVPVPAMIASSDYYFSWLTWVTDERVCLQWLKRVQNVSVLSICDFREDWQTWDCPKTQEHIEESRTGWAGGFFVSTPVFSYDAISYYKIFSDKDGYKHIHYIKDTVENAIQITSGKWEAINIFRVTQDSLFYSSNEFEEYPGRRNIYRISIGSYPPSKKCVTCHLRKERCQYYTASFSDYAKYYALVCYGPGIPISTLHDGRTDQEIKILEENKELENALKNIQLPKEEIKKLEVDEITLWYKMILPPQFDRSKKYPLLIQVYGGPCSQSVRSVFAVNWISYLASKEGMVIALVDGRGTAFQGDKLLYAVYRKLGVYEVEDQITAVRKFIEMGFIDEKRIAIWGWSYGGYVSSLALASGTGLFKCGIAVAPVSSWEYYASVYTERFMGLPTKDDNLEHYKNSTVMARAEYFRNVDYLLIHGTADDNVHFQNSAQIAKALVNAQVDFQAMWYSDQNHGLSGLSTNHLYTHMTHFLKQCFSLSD
Procedure: (§1) The purpose of this assay is to determine the IC50 of various inhibitors against recombinant human dipeptidyl peptidase IV (DPPIV), fibroblast activation protein (FAP) or prolyl oligopeptidase (PREP).
(§2) The assays are conducted in the following steps: • 1 Dissolve the compound in DMSO to a final concentration of 100 mM. From this, prepare a 1 mM stock at pH 7.5 in 50 mM Tris, 140 mM NaCl Buffer (FAP)/pH 7.5 in 25 mM Tris, 250 mM NaCl Buffer/[…]. • 2. Serial dilute (1:10) the 1 mM compound stocks prepared previously into the appropriate assay buffer (FAP: 50 mM Tris, 140 mM NaCl, pH 7.5/PREP: 25 mM Tris, 0.25 M NaCl, pH 7.5/DPPIV: 25 mM Tris, pH 8.0) to one row of a 96-well plate. • 3. […] Dilute the enzymes into their appropriate assay buffers. The final enzyme concentrations should be 0.1, 1.2, and 0.6 nM for DPPIV, FAP and PREP respectively. Add 180 μL to each well needed in columns 2-10. Column 1(A,B,C) should be prepared with 200 μl of appropriate assay buffer as control. Column 1(D,E,F,G,H) should be prepared with 20 μl of appropriate assay buffer and 180 ul enzyme as no inhibitor control. • 5. Add 20 μL of the compound of interest from the dilution plate prepared in step 2 to columns 2-10 of the assay plate where appropriate. Each sample should be tested in triplicate. Allow this to incubate for 10 minutes at room temperature, shaking the plate for the first two minutes. • 6. Add 10 μL of 20× substrate prepared in step 3 to each well and allow this to incubate for 15 minutes at room temperature, shaking the plate for the first two minutes. • 7. Read the fluorescence at λex: 380, λem: 460. (DPcore=[dAla|dSer|Gly]-[boroPro|Pro-nitrile], XXaa=alpha-amino acid)

[2] = biological target: recombinant human prolyl oligopeptidase (PREP) (Homo sapiens (Human), UniProt P48147); assay: In vitro assay prolyl oligopeptidase IC50 (Example 21)
Chain of recombinant human prolyl oligopeptidase (PREP) (P48147 whole entry): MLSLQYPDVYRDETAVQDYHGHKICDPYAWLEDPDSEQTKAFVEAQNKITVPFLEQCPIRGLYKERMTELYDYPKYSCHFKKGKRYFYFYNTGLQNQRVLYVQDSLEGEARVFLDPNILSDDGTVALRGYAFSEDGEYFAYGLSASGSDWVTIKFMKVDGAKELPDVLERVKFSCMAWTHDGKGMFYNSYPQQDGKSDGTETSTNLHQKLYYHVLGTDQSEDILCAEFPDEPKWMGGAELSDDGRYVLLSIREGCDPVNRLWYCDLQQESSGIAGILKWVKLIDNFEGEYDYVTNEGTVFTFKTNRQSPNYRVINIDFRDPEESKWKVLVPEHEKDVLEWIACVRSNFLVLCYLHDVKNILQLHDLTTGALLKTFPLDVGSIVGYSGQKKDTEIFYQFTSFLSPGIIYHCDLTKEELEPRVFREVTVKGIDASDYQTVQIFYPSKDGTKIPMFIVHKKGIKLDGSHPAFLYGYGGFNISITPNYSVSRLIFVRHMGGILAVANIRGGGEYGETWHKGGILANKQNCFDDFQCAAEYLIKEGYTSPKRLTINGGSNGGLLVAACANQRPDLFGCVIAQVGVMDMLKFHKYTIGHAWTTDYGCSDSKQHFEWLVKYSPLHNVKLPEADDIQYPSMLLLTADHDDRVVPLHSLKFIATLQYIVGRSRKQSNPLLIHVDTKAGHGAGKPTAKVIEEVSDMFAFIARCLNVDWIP
Procedure: as §1, §2

[3] = biological target: recombinant human dipeptidyl peptidase IV (DPPIV) (Homo sapiens (Human), UniProt P27487); assay: In vitro assay dipeptidyl peptidase IV IC50 (Example 21)
Chain of recombinant human dipeptidyl peptidase IV (DPPIV) (P27487 whole entry): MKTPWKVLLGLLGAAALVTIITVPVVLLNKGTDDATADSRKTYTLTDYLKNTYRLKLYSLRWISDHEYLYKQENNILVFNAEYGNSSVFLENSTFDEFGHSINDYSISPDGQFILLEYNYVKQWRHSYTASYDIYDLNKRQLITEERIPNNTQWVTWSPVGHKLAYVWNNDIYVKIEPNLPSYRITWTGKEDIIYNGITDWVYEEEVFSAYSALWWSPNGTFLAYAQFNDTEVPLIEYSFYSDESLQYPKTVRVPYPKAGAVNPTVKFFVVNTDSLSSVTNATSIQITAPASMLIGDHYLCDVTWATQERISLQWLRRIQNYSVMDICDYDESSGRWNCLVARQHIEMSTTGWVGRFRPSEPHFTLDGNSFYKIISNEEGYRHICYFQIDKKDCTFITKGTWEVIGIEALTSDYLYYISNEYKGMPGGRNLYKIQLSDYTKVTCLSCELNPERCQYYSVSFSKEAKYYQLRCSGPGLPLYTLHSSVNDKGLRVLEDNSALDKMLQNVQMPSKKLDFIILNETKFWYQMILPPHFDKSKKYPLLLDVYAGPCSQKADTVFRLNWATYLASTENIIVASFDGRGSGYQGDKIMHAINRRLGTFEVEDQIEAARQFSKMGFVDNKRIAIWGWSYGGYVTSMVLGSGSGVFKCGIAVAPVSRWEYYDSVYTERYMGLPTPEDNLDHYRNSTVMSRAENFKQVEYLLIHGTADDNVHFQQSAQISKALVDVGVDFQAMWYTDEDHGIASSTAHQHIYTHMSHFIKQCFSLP
Procedure: as §1, §2

recombinant human FAP = recombinant human FAP (Homo sapiens (Human), UniProt Q12884); assay: In vitro enzyme IC50 assay, FAP (Example 16); details: 10 min preincubation at 25° C.; Z-Gly-Pro-AMC
Chain of recombinant human FAP (Q12884 whole entry): as the sequence (Q12884 whole entry) above
Procedure: Biological Materials: For the in vitro IC50 determination assays, recombinant human DPPIV, DPP9, FAP, and PREP were purchased from R&D Systems, and DPP8 was from Biomol International. Buffer systems used were A (25 mM Tris, pH 8.0), B (50 mM Tris, pH 7.5), C (50 mM Tris, 140 mM NaCl, pH 7.5), D (25 mM Tris, 250 mM NaCl, pH 7.5), and E (20 mM Tris, 20 mM KCl, pH 7.4). […] Substrate Specificity Assay. Peptide libraries (0.21 mM) were incubated for 24 h with 1 nM FAP in buffer E at 37° C. The reaction was quenched by the addition of 1.2 N HCl. The samples were analyzed by reverse-phase HPLC-MS on a Thermo Finnigan LCQ Duo, quantifying the peaks in the resulting base peak chromatograms. Relative cleavage values were determined by comparing the postquench abundance of intact peptides to those in the initial library.
In Vitro Enzyme IC50 Assays. Enzymatic activity of DPPIV, DPP8, DPP9, FAP, and PREP was measured at 25° C. on a Molecular Devices M2e multidetection microtiter plate reader, monitoring the fluorescence at an excitation wavelength of 380 nm and an emission wavelength of 460 nm. The substrate was either H-Gly-Pro-AMC for the DPPIV, DPP8, and DPP9 assays or Z-Gly-Pro-AMC for the FAP and PREP assays. […] The final enzyme concentrations were 0.1, 0.8, 0.4, 1.2, and 0.6 nM for DPPIV, DPP8, DPP9, FAP, and PREP, respectively. […] Those prepared in pH 2.0 solution were preincubated at 25° C. for 4 h prior to dilution. Immediately prior to the commencement of the experiment, the 100 mM stocks were further diluted to 10^-3 M in the appropriate assay buffer, from which 1:10 serial dilutions were prepared. All inhibitors were tested in triplicate.

Row | SMILES | IC50 ([1]; Z-Gly-Pro-AMC, 1.2 nM enzyme) [nM] | IC50 ([2]; Z-Gly-Pro-AMC, 0.6 nM enzyme) [nM] | IC50 ([3]; Gly-Pro-AMC, 0.1 nM enzyme) [nM] | IC50 [1] [nM] | IC50 [2] [nM] | also measured
1 | CC(C)[C@H](NC(=O)CNC(=O)CNC(=O)CN1CCN2CC(=O)O[C]3(CN4CCN5CC(=O)O[C](C1)(C5)[Lu]3[O]C(=O)C4)C2)C(=O)N[C@H](C)C(=O)N1CCC[C@H]1B(O)O (stereo partly drawn) [6522LU] (X3-GGV[dA]-boroPro) | 26 | 19000 | > 100000 |  |  | 
2 | C[C@@H](NC(=O)c1ccc(NNC(=O)CCCNC(=O)CN2CCN3CCN4CCN(CC2)CC(=O)[O][Ga]([O]C(=O)C3)[O]C(=O)C4)nc1)C(=O)N1CCC[C@H]1B(O)O [6489 GA] |  |  |  | 39 | 3400 | IC50 [3]: > 100000 nM
3 | C[C@@H](NC(=O)c1ccc(NNC(=O)CCCCCNC(=O)CN2CCN(CC(=O)O)CCN(CC(=O)O)CCN(CC(=O)O)CC2)cc1)C(=O)N1CCC[C@H]1B(O)O [6486S, DOTA-EACA-HyBz-D-Ala-boroPro] |  |  |  |  |  | IC50 (recombinant human FAP): 1.7 nM
4 | C[C@@H](NC(=O)c1ccc(NNC(=O)CN2CCN(CC(=O)O)CCN(CC(=O)O)CCN(CC(=O)O)CC2)cc1)C(=O)N1CCC[C@H]1B(O)O [4536B, DOTA-HyBz-D-Ala-boroPro] |  |  |  |  |  | IC50 (recombinant human FAP): 2.7 nM
5 | C[C@@H](NC(=O)c1ccc(NNC(=O)CNC(=O)CN2CCN3CCN4CCN(CC2)CC(=O)[O][Ga]([O]C(=O)C3)[O]C(=O)C4)cc1)C(=O)N1CCC[C@H]1B(O)O [6487GA] |  |  |  | 20.8 | 1200 | 
6 | C[C@@H](NC(=O)c1ccc(NNC(=O)CN2CCN3CCN4CCN(CC2)CC(=O)[O][Gd]([O]C(=O)C3)[O]C(=O)C4)nc1)C(=O)N1CCC[C@H]1B(O)O [4536GD] |  |  |  | 450 | > 100000 | IC50 [3]: > 100000 nM
7 | CC(C)[C@H](NC(=O)CNC(=O)CNC(=O)CCC(C(=O)O)N1CCN(CC(=O)O)CCN(CC(=O)O)CCN(CC(=O)O)CC1)C(=O)N[C@H](C)C(=O)N1CCC[C@H]1B(O)O (stereo partly drawn) [compound 6794] ({DOTAGA}-GGV[dA]-boroPro) | 33 | 17400 |  |  |  | 
8 | C[C@@H](NC(=O)c1ccc(CNC(=O)CCCNC(=O)CN2CCN(CC(=O)O)CCN(CC(=O)O)CCN(CC(=O)O)CC2)cc1)C(=O)N1CCC[C@H]1B(O)O [compound 6591] |  |  |  | 0.36 | 103 | 
9 | C[C@@H](NC(=O)c1ccc(NC(=O)CCCCNC(=O)CN2CCN(CC(=O)O)CCN(CC(=O)O)CCN(CC(=O)O)CC2)cc1)C(=O)N1CCC[C@H]1B(O)O [compound 6590] |  |  |  | 1.6 | 129 | 
10 | C[C@@H](NC(=O)[C@H]1CC[C@H](CNC(=O)CN2CCN3CCN4CCN(CC2)CC(=O)[O][Lu]([O]C(=O)C3)[O]C(=O)C4)CC1)C(=O)N1CCC[C@H]1B(O)O [6952 LU] | 14 | 21000 | > 100000 |  |  | 
11 | CC(C)[C@H](NC(=O)CNC(=O)CC[C@@H]1C(=O)[O][Lu]23[O]C(=O)CN4CCN(CCN1CCN(CC4)CC(=O)[O]2)CC(=O)[O]3)C(=O)N[C@H](C)C(=O)N1CCC[C@H]1B(O)O [6795DLU] | 60 | 10000 | > 100000 |  |  | 
12 | CC(C)[C@H](NC(=O)CNC(=O)CC[C@H](C(=O)O)N1CCN(CC(=O)O)CCN(CC(=O)O)CCN(CC(=O)O)CC1)C(=O)N[C@H](C)C(=O)N1CCC[C@H]1B(O)O [6795D] | 17 | 7450 | > 100000 |  |  | 
13 | C[C@@H](NC(=O)c1ccc(NNC(=O)CCCCCNC(=O)CN2CCN3CCN4CCN(CC2)CC(=O)[O][Lu]([O]C(=O)C3)[O]C(=O)C4)nc1)C(=O)N1CCC[C@H]1B(O)O [6609LU] |  |  |  | 1 | 60 | 
